Test results from a melting point compilation (Tetko et al.; mined from patent text by program, amines drawn as free bases though some values may be those of a salt).

melting point | SMILES
66 °C | CC(=O)Nc1ccccc1C(=O)C1CCCCC1
110 °C | C(=C1CCNCC1)c1ccc(C2=NCCO2)cc1
153 to 155 °C | Nc1ccc(C2=NN3CCCC3Cc3cc4c(cc32)OCO4)cc1 (centres undefined)
169 to 170 °C | Cc1nc2cccc3n(CCC4CCN(S(=O)(=O)C(F)(F)F)CC4)c(=O)c1n23
205 to 207 °C | CC(C)(C)c1csc(-c2cc3cc(CSc4ccccc4C(=O)O)ccc3o2)n1
192 °C | CC1([N+](=O)[O-])C(c2ccco2)CC(=C(C#N)C#N)CC1c1ccco1 (centres undefined)
> 280 °C | O=c1[nH]c2cc(Br)cc(Br)c2c(=O)n1Cc1ccccc1
108 °C | CN1C(=O)CCC2=C1CCc1cc(F)ccc12
124 to 126 °C | O=C1CCNC(C(O)c2ccccc2)C1 (centres undefined)
64 to 66 °C | CCN(C(C)C)C(C)CC1=C(c2ccc(OC)cc2)CCCNC1=O (centres undefined)
194 to 197 °C | COc1ccc2c(c1)C(=O)N(c1ccc3ncccc3c1)C2
238 to 239 °C | c1ccc2c(c1)ncc1nncn12
202 to 206 °C | CC(=O)SCC(Cc1ccccc1)C(=O)Nc1cc(C(=O)O)ccc1O (centres undefined)
155 to 160 °C | O=C1NCC=Cc2cc[nH]c21
95 to 96 °C | O=C(OCc1ccccc1)C1CSC2C(N=Cc3ccc([N+](=O)[O-])cc3)C(=O)N12 (centres undefined)
188 °C | COc1ccccc1CNc1nc(Cl)nc2c1ncn2[C@@H]1SC[C@@H](O)[C@H]1O
161 °C | CCCCCC1=NNC(C)=C(C(=O)NN)C1c1ccccc1 (centres undefined)
126 °C | CCC(O)Cn1c(Cl)nc2ccccc21 (centres undefined)
176 to 177 °C | CN(C)CCCOc1ccc(-c2n[nH]c3ncccc23)cc1
198 to 199 °C | O=C(c1ccccc1)N1Cc2c(-c3noc(C4CC4)n3)ncn2-c2ccccc21
112 to 115 °C | O=C(CNC(=O)[C@@H]1CCCN1C(=O)O)NCc1ccccc1
142 to 143 °C | CCCCOc1ccc(NC(=O)NCC2(c3ccccc3)CCCCC2)cc1
77 to 78 °C | CC(C)NCC(O)COc1ccc(CCO)cc1 (centres undefined)
121 to 123 °C | CCC(=O)Nc1cc(-c2sc(C(C)=O)nc2-c2cccc(C)c2)ccn1
82.5 to 84 °C | OCCN1CCN(c2ccccn2)CC1

melting point | SMILES
175 to 178 °C | O=[N+]([O-])c1ccc2nc3c(nc2c1)CCCC3
204 to 205 °C | Cc1ccc(-c2ncn3c2CN(N(C)C)c2ccccc2-3)cc1
146 to 149 °C | CCCCn1c(CO)nc2cnc3ccccc3c21
251 to 255 °C | COc1ccc(CC2SC(=O)NC2=O)c2c1N(CC(=O)O)C(=O)CC2 (centres undefined)
116 to 119 °C | CCN1Cc2ccccc2C(=O)c2cc(CC(=O)OC)ccc21
70 to 74 °C | Cn1c(-c2cccs2)cnc1[C@H](Cc1ccccn1)N(C=O)c1cc2cc(Cl)ccc2o1
129 to 132 °C | CC1=C(C(=O)Nc2ccccn2)C(c2ccccc2Cl)C(C(=O)OCCCCn2c(C)nc3cnccc32)=C(c2ccc(F)cc2)N1 (centres undefined)
153 to 155 °C | CCN1CCCOc2ccc(Nc3ncc(Cl)c(Nc4ccsc4C(=O)NC)n3)cc21
99 to 101 °C | CC(C)(C)c1ccc(CCCCN2CCC(C3(O)c4ccccc4CCc4ccccc43)CC2)cc1
> 300 °C | N=C(N)c1ccc(-c2ccc(-c3ccc(-c4ccc(C(=N)N)cn4)o3)o2)nc1
110 °C | O=C(O)CNC(=O)NC(CS)Cc1ccccc1 (single isomer, unassigned; (+))
287 to 289 °C | C[C@@H](n1cnc2cc(N3CCN(c4ccc([N+](=O)[O-])cc4)CC3)ccc2c1=O)[C@](O)(Cn1cncn1)c1ccc(F)cc1F
153 to 155 °C | CCOC(=O)C(C)(C)Oc1cccc2c1C[C@@H](OC)[C@H](O)C2 (relative stereo)
79 to 80 °C | COc1ccccc1C1CC(=O)c2c(C)coc2C1 (centres undefined)
158 °C | CCOC(=O)c1cnc2c(OC)nccc2c1Nc1ccccc1C
94 °C | CCOP(=O)(OCC)C1CCNc2ccc(C(F)(F)F)cc21 (centres undefined)
65 to 66 °C | CCSC(C)C(=O)N(CC)c1cn(-c2cccnc2)nc1Cl (centres undefined)
114 to 115 °C | CC(C)c1nn(-c2ccc(C(F)(F)F)cn2)cc1COc1cccc(CC(=O)O)c1
186 to 188 °C | Cc1ccc(C(O)=S)cn1
146 to 148 °C | Fc1ccc(Cn2c(NC3CCN(CCSc4ncccn4)CC3)nc3ccccc32)cc1
135 to 136 °C | Cc1cccc(N2CCN(Cc3ccc4c(c3)NCCN4)CC2)c1
293 to 295 °C | O=c1[nH]c2ncc(-c3ccc(-c4ncc[nH]4)cc3)nc2n1CCC1CCOCC1
204 to 207 °C | O=C(O)COC1CCN(Cc2ccc3c(c2)Nc2nccnc2S3)CC1
98 to 101 °C | CC1C[C@H]2[C@@H](O1)[C@@H](O)C(=O)N2Cc1ccccc1 (relative stereo)
180 °C | O=C(O)C(CCN1C(=O)c2ccccc2C1=O)CS(=O)(=O)c1ccc(-c2ccccc2)cc1 (centres undefined)

The next lines start with the compound.

SMILES | melting point
O=C1NC(=O)C(O)(c2c[nH]c3ccc(Br)cc23)C(=O)N1 | > 250 °C
Nc1cccc(S(=O)(=O)Nc2ccccc2NNC=O)c1 | 120 °C
CCOC(=O)C=C(C)C=CC=C(C)C=Cc1c(Cl)cc(OC)c(Cl)c1Cl | 126 to 128 °C
CC1(C)CC(=O)C(=C(O)COc2ccc(Cl)cc2Cl)C(=O)C1 | 170 to 175 °C
COc1ccc(C)nc1I | 45 to 50 °C
Cc1c(-c2cnc(C(N)=O)c3[nH]c4cc(NC5CCOC5)ccc4c23)cccc1N1Cc2ccc(Cl)cc2C1=O (centres undefined) | 115 °C
C[C@@H](NC(=NC#N)Nc1ccc(C#N)cc1)C(C)(C)C | 159 to 160 °C
O=C(O)CCCCCC(=O)CCc1ccc(Cl)cc1 | 93 to 96 °C
COC(=O)CCC(=O)c1ccc(C)cc1OCC1CO1 (centres undefined) | 61.5 to 63 °C
O=C(CBr)Nc1ccc(Br)cc1C(=O)O | 203 to 204 °C
CCc1oc(C)cc(=O)c1O | 157 to 159 °C
C#CCS(=O)c1ncc(Cl)cn1 (centres undefined) | 92 °C
CCOC(=O)C(Oc1ccc(Oc2ccc(C#N)cc2)cc1)C(=O)OCC | 42 to 46 °C
CNC(=O)c1ccc(C=CC(=O)Nc2cccc(-c3ccc(C)c(COc4cccc5ccc(C)nc45)c3C)c2)cc1 | 234 to 238 °C
Cc1noc(NS(=O)(=O)c2ccccc2-c2ccc(-c3ncco3)cc2Cc2ncc(-c3ccccc3)o2)c1C | 120 to 128 °C
CC(C)(C)C(=O)c1c(CC(C)(C)C(=O)O)n(Cc2ccc(Cl)cc2)c2ccc(OCc3ccc4occc4n3)cc12 | 160 °C
COC(=O)c1ccc(C(=O)c2ccc3c(c2)C2(C)C4(C)CCC(C4)C2(C)O3)cc1 (centres undefined) | 150 °C
CC=Cc1cccc(C(=O)C=Cc2ccccc2)c1O | 95 to 98 °C
Cc1ccc([C@@H]2c3c(C)c(N4C(=O)CC(c5ccc(F)cc5)CC4=O)c(C)c(C)c3OC2(C)C)cc1 | 151 to 154 °C
CCC(Oc1ccc(C(C)(C)CC)cc1C(C)(C)CC)C(=O)Nc1cc(Cl)c2[nH]c(=O)[nH]c2c1O (centres undefined) | 201 to 204 °C
COCCN(CCOC)C(=O)c1ccc([N+](=O)[O-])cc1[N+](=O)[O-] | 89 °C
Cc1c(C=CC#N)cccc1[N+](=O)[O-] | 136 °C
CC(C)(C)CC(C)(C)Nc1nc(NC(C)(C)C(C)(C)C)nc(N2CC3CCC(CC3)C2)n1 | 98 to 102 °C
CC1(C)[C@@H](CN2CC[C@@H](O)C2)CC[C@@]1(C)NCC(=O)N1C[C@@H](F)C[C@H]1C#N | 130 to 135 °C
CCCOc1ccc(CCCCCCC(=O)O)cc1 | 49 to 50 °C

SMILES | melting point
COC(=O)c1ccc([N+](=O)[O-])c(OCC(N)=O)c1 | 138 to 139 °C
CCOC(OCC)c1cc(NC(c2ccccc2)(c2ccccc2)c2ccccc2)c(F)cn1 | 125 to 127 °C
COc1cc(CC(N)=O)cc(OC(F)F)c1OC | 104 to 105 °C
C=CCNC(=O)CCNc1nc(NCC=C)nc2c(C)csc12 | 95 to 96 °C
CC(NC(=S)NC(COC(=O)C(C)(C)C)Cc1ccccc1)c1ccc([N+](=O)[O-])cc1 (centres undefined) | 99 to 100 °C
Cc1cccc(Cl)c1-n1nc(C(C)C)c(C#N)c1N | 116 to 118 °C
Cc1c(-c2cccc(O)c2)sc(C#N)c1-c1ccc(O)cc1 | 240 to 241 °C
COC(=O)c1cc([N+](=O)[O-])cn1C | 122 to 124 °C
CCOC(=O)CC(=O)N1NCCCC1C(=O)OC(C)(C)C (centres undefined) | 86 to 87 °C
COC(=O)c1cnc(Cl)c(Br)c1 | 78 to 79 °C
C=C(c1ccccc1)c1cccc(C(=NOCc2ccc(OCc3nc(-c4ccccc4)oc3C)cc2)C(=O)O)c1 | 171 to 172 °C
O=C(O)c1ccc(C(c2ccc(C(=O)O)c([N+](=O)[O-])c2)(C(F)(F)F)C(F)(F)F)cc1[N+](=O)[O-] | 235 to 238 °C
CNC(=O)Nc1ccc(Oc2cccc(C(F)(F)F)c2)c(Cl)c1 | 160 °C
Cn1cncc1C(C)(c1ccc(Cl)cc1)c1ccc2c(c1)c(-c1cccc(Cl)c1)cc(=O)n2C (centres undefined) | 204 °C
CN[C@@H](Cc1ccc(C(F)(F)F)cc1)[C@H](O)c1ccc(F)cc1 (racemic) | 79 to 80 °C
COc1ccc(C(=O)Nc2ccccc2)cc1NCc1ccc(C(C)(C)C)cc1 | 195 to 197 °C
CC1(C)OC(=O)C(Oc2ccc(Cl)c(Cl)c2)=C1c1ccc(S(C)(=O)=O)cc1 | 144 to 145 °C
CCCS(=O)(=O)Nc1ccc2c(c1)S(=O)(=O)C=C(c1c(O)c3cc(F)ccc3n(CCC3CC3)c1=O)N2 | 145 to 150 °C
CC(C)(C)C1=CC(=CC#Cc2ccc(C(=O)O)c(O)c2)C=C(C(C)(C)C)C1=O | 203 °C
CC(=O)OC1CSC(Oc2cccc(-c3c(C)n[nH]c3C)c2)C(OC(C)=O)C1OC(C)=O (centres undefined) | 195 °C
CN(C)C(=O)n1nc(N(C)C)c2ccc(Cl)cc21 | 65 to 66 °C
COc1cccc2[nH]c(C(=O)OCc3ccccc3)cc12 | 162 to 164 °C
COc1cccc(C(c2cccc(OC)c2)C(Nc2nc(OC)cc(OC)n2)C(=O)O)c1 (centres undefined) | 58 to 66 °C
O=C(O)Cc1coc2cc(OCc3ccccc3OCc3ccc(C(F)(F)F)cc3)ccc12 | 126 to 127 °C
